Each structure is given as a SMILES string.

The target in test [1] is T1, ALK (Homo sapiens, UniProt Q9UM73).
T1 construct: host or cells: baculovirus expression system
Kind of test: ALK Kinase Assay (ELISA/TRF, PLC-γ substrate). The note with it: ALK Kinase Inhibition; read-out: ALK Potency. In kind it is biochemical. In short, it runs like this:
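IC50 values derive from percent inhibition plotted against log10 compound concentration and fitted to a variable-slope sigmoidal equation. The underlying reaction used 30 ng/ml ALK acting on immobilized PLC-γ (10 μg/mL in TBS) at 37° C for 15 minutes, read with Eu-N1 PT66 antibody.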

The target of test [2] is T2, JAK2 (Homo sapiens, UniProt O60674).
T2 construct: host or cells: baculovirus expression system
Kind of test: Recombinant Human JAK2 Kinase Assay (TRF). It counts as biochemical. The following applies: JAK2 Kinase Inhibition; read-out: JAK2 Potency. Put shortly:
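Baculovirus-expressed JAK2 (15 ng/ml) phosphorylated a biotinylated 15-mer peptide captured on Neutravidin-coated plates, in 20 mM HEPES pH 7.2 with 0.2 μM ATP, 1 mM MnCl2, 0.1% BSA and 2.5% DMSO. Reaction ran 20 min at room temperature; phosphopeptide was detected by time-resolved fluorescence with Eu-N1-labelled PY100 antibody.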

T2 sequence (O60674 whole entry): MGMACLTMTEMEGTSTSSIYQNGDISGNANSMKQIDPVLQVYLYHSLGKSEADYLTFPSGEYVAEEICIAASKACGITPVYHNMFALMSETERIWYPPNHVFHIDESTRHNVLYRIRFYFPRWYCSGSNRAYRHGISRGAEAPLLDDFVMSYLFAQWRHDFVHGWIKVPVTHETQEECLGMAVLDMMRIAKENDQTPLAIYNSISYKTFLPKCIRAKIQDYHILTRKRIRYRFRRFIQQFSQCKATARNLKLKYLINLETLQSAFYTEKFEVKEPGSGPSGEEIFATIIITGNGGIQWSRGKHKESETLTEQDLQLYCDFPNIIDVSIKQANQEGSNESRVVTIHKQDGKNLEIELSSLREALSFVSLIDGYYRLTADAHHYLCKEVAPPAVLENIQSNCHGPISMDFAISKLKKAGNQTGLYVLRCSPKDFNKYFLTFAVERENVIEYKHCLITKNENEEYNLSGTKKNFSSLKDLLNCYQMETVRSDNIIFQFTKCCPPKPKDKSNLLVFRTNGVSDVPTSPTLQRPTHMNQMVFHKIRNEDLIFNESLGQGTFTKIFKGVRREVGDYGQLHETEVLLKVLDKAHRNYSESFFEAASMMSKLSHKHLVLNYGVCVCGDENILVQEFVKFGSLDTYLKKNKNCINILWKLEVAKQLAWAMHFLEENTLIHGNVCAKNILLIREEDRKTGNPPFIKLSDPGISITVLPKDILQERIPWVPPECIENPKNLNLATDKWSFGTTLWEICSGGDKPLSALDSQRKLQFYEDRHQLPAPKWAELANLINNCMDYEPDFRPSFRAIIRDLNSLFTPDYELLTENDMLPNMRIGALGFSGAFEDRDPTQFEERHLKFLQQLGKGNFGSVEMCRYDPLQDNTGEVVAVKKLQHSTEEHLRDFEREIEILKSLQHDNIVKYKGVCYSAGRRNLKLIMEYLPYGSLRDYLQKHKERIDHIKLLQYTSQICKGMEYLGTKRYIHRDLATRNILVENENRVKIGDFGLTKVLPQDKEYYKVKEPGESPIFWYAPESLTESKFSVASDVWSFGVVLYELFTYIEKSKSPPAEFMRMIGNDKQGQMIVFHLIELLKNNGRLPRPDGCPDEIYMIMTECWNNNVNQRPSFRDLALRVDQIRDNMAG
T1 sequence (Q9UM73 19-1620): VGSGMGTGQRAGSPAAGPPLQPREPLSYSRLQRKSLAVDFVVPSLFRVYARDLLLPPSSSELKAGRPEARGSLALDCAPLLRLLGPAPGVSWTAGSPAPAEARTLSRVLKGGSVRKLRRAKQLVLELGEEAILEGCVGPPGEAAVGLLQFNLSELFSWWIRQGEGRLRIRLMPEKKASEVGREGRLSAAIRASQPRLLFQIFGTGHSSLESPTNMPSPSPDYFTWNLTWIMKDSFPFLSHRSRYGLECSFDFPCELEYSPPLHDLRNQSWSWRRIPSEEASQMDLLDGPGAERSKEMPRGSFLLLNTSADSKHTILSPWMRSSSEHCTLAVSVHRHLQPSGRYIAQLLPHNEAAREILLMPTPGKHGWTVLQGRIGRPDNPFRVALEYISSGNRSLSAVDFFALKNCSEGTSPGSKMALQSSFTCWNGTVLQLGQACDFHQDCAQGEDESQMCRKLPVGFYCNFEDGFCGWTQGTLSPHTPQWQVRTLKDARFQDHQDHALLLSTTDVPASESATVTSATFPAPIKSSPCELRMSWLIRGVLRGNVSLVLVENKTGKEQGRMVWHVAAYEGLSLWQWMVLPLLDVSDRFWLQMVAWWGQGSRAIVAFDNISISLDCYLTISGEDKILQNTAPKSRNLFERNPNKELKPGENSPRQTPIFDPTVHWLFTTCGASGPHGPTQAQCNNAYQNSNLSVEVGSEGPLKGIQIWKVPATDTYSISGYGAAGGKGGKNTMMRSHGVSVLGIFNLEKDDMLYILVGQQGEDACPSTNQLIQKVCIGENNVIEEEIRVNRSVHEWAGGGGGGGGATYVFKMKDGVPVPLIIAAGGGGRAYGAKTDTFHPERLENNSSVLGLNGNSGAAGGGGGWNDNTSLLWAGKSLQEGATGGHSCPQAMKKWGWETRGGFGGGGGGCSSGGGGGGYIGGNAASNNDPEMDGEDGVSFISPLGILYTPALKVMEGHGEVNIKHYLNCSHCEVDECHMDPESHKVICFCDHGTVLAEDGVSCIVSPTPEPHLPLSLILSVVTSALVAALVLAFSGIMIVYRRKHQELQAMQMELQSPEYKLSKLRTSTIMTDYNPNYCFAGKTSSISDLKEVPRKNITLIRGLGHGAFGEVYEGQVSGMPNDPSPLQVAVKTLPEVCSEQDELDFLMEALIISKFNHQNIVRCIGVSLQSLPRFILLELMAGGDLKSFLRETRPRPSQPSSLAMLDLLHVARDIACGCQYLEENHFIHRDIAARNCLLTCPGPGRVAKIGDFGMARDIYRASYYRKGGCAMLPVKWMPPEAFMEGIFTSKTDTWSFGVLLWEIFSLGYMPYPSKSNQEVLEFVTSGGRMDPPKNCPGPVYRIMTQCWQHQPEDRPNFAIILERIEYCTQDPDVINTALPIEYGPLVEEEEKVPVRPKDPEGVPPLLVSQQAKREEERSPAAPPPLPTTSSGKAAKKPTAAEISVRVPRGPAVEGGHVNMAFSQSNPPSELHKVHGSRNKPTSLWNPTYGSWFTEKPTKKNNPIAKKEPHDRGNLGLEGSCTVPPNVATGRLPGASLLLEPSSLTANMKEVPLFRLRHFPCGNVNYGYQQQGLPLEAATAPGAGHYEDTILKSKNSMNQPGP

For `COc1ccccc1-c1ccc2cnc(Nc3ccc(N4CCC(N5CCOCC5)CC4)cc3)nn12` [Example 334, [7-(2-Methoxy-phenyl)-pyrrolo[2,1-f][1,2,4]triazin-2-yl]-[4-(4-morpholin-4-yl-piperidin-1-yl)-phenyl]-amine], the IC50 in test [1] and in test [2] was less than 100 nM throughout.
For the compound `COc1ccc(Cl)cc1-c1ccc2cnc(Nc3ccc(N4CCC(N5CCOCC5)CC4)cc3)nn12` [Example 335, [7-(5-Chloro-2-methoxy-phenyl)-pyrrolo[2,1-f][1,2,4]triazin-2-yl]-[4-(4-morpholin-4-yl-piperidin-1-yl)-phenyl]-amine], the values for the IC50 in test [1] and in test [2] were 100 to 1000 nM and less than 100 nM, respectively.
Regarding `Clc1cccc(-c2ccc3cnc(Nc4ccc(N5CCC(N6CCOCC6)CC5)cc4)nn23)c1` [Example 336, [7-(3-Chloro-phenyl)-pyrrolo[2,1-f][1,2,4]triazin-2-yl]-[4-(4-morpholin-4-yl-piperidin-1-yl)-phenyl]-amine], the IC50 in test [1] is 100 to 1000 nM; in test [2], less than 100 nM.
Regarding `c1cncc(-c2ccc3cnc(Nc4ccc(N5CCC(N6CCOCC6)CC5)cc4)nn23)c1` [Example 337, [4-(4-Morpholin-4-yl-piperidin-1-yl)-phenyl]-(7-pyridin-3-yl-pyrrolo[2,1-f][1,2,4]triazin-2-yl)-amine], the IC50 was 100 to 1000 nM in test [1] and less than 100 nM in test [2].
In the case of `COc1ccccc1-c1ccc2cnc(Nc3cccc(C(=O)N4CCN(C)CC4)c3)nn12` [Example 338, {3-[7-(2-Methoxy-phenyl)-pyrrolo[2,1-f][1,2,4]triazin-2-ylamino]-phenyl}-(4-methyl-piperazin-1-yl)-methanone], the IC50 in test [1] was 100 to 1000 nM; in test [2], less than 100 nM.
For the compound `COc1ccc(Cl)cc1-c1ccc2cnc(Nc3cccc(C(=O)N4CCN(C)CC4)c3)nn12` [Example 339, {3-[7-(5-Chloro-2-methoxy-phenyl)-pyrrolo[2,1-f][1,2,4]triazin-2-ylamino]-phenyl}-(4-methyl-piperazin-1-yl)-methanone], the IC50 is 100 to 1000 nM in test [1] and less than 100 nM in test [2].
Regarding `CN1CCN(C(=O)c2cccc(Nc3ncc4ccc(-c5cccc(Cl)c5)n4n3)c2)CC1` [Example 340, {3-[7-(3-Chloro-phenyl)-pyrrolo[2,1-f][1,2,4]triazin-2-ylamino]-phenyl}-(4-methyl-piperazin-1-yl)-methanone], the IC50 in test [1] was 100 to 1000 nM; in test [2], less than 100 nM.
As for `CN1CCN(C(=O)c2cccc(Nc3ncc4ccc(-c5cccnc5)n4n3)c2)CC1` [Example 341, (4-Methyl-piperazin-1-yl)-[3-(7-pyridin-3-yl-pyrrolo[2,1-f][1,2,4]triazin-2-ylamino)-phenyl]-methanone], the IC50 was 1000 to 10000 nM in test [1] and less than 100 nM in test [2].
`CN1CCN(C(=O)c2cccc(Nc3ncc4ccc(-c5ccc(S(C)(=O)=O)cc5)n4n3)c2)CC1` [Example 342, {3-[7-(4-Methanesulfonyl-phenyl)-pyrrolo[2,1-f][1,2,4]triazin-2-ylamino]-phenyl}-(4-methyl-piperazin-1-yl)-methanone]: the IC50 in test [1] was 1000 to 10000 nM; in test [2] it was less than 100 nM.
As for `COc1ccccc1-c1ccc2cnc(Nc3ccc(N4CCCC(N5CCOCC5)C4)cc3)nn12` (stereo not drawn) [Example 343, [7-(2-Methoxy-phenyl)-pyrrolo[2,1-f][1,2,4]triazin-2-yl]-[4-(3-morpholin-4-yl-piperidin-1-yl)-phenyl]-amine], the IC50 in test [1] and in test [2] was less than 100 nM throughout.
`COc1ccc(Cl)cc1-c1ccc2cnc(Nc3ccc(N4CCCC(N5CCOCC5)C4)cc3)nn12` (stereo not drawn) [Example 344, [7-(5-Chloro-2-methoxy-phenyl)-pyrrolo[2,1-f][1,2,4]triazin-2-yl]-[4-(3-morpholin-4-yl-piperidin-1-yl)-phenyl]-amine]: the IC50 in test [1] and in test [2] was less than 100 nM each time.
As for `Clc1cccc(-c2ccc3cnc(Nc4ccc(N5CCCC(N6CCOCC6)C5)cc4)nn23)c1` (stereo not drawn) [Example 345, [7-(3-Chloro-phenyl)-pyrrolo[2,1-f][1,2,4]triazin-2-yl]-[4-(3-morpholin-4-yl-piperidin-1-yl)-phenyl]-amine], the IC50 was 100 to 1000 nM in test [1] and less than 100 nM in test [2].
Consider `CS(=O)(=O)c1ccc(-c2ccc3cnc(Nc4ccc(N5CCCC(N6CCOCC6)C5)cc4)nn23)cc1` (stereo not drawn) [Example 346, [7-(4-Methanesulfonyl-phenyl)-pyrrolo[2,1-f][1,2,4]triazin-2-yl]-[4-(3-morpholin-4-yl-piperidin-1-yl)-phenyl]-amine], for which the values for the IC50 in test [1] and in test [2] were 100 to 1000 nM and less than 100 nM, respectively.
Turning to `c1cncc(-c2ccc3cnc(Nc4ccc(N5CCCC(N6CCOCC6)C5)cc4)nn23)c1` (stereo not drawn) [Example 347, [4-(3-Morpholin-4-yl-piperidin-1-yl)-phenyl]-(7-pyridin-3-yl-pyrrolo[2,1-f][1,2,4]triazin-2-yl)-amine], the IC50 in test [1] is 100 to 1000 nM; in test [2], less than 100 nM.
Turning to `COc1ccccc1-c1ccc2cnc(Nc3ccc(N4CCCC(N5CCN(C)CC5)C4)cc3)nn12` (stereo not drawn) [Example 348, [7-(2-Methoxy-phenyl)-pyrrolo[2,1-f][1,2,4]triazin-2-yl]-{4-[3-(4-methyl-piperazin-1-yl)-piperidin-1-yl]-phenyl}-amine], the IC50 in test [1] and in test [2] was less than 100 nM each time.
Turning to `COc1ccc(Cl)cc1-c1ccc2cnc(Nc3ccc(N4CCCC(N5CCN(C)CC5)C4)cc3)nn12` (stereo not drawn) [Example 349, [7-(5-Chloro-2-methoxy-phenyl)-pyrrolo[2,1-f][1,2,4]triazin-2-yl]-{4-[3-(4-methyl-piperazin-1-yl)-piperidin-1-yl]-phenyl}-amine], the IC50 in test [1] and in test [2] was less than 100 nM throughout.
Regarding `CN1CCN(C2CCCN(c3ccc(Nc4ncc5ccc(-c6cccc(Cl)c6)n5n4)cc3)C2)CC1` (stereo not drawn) [Example 350, [7-(3-Chloro-phenyl)-pyrrolo[2,1-f][1,2,4]triazin-2-yl]-{4-[3-(4-methyl-piperazin-1-yl)-piperidin-1-yl]-phenyl}-amine], the IC50 in test [1] and in test [2] was less than 100 nM throughout.
As to `CN1CCN(C2CCCN(c3ccc(Nc4ncc5ccc(-c6ccc(S(C)(=O)=O)cc6)n5n4)cc3)C2)CC1` (stereo not drawn) [Example 351, [7-(4-Methanesulfonyl-phenyl)-pyrrolo[2,1-f][1,2,4]triazin-2-yl]-{4-[3-(4-methyl-piperazin-1-yl)-piperidin-1-yl]-phenyl}-amine], the IC50 was 100 to 1000 nM in test [1] and less than 100 nM in test [2].
With `CN1CCN(C2CCCN(c3ccc(Nc4ncc5ccc(-c6cccnc6)n5n4)cc3)C2)CC1` (stereo not drawn) [Example 352, {4-[3-(4-Methyl-piperazin-1-yl)-piperidin-1-yl]-phenyl}-(7-pyridin-3-yl-pyrrolo[2,1-f][1,2,4]triazin-2-yl)-amine], the figures for the IC50 in test [1] and in test [2] were 100 to 1000 nM and less than 100 nM, respectively.
In the case of `COc1ccccc1-c1ccc2cnc(Nc3ccc(CN4CCN(C)CC4)cc3)nn12` [Example 353, [7-(2-Methoxy-phenyl)-pyrrolo[2,1-f][1,2,4]triazin-2-yl]-[4-(4-methyl-piperazin-1-ylmethyl)-phenyl]-amine], the IC50 in test [1] and in test [2] was less than 100 nM each time.
For the compound `COc1ccc(Cl)cc1-c1ccc2cnc(Nc3ccc(CN4CCN(C)CC4)cc3)nn12` [Example 354, [7-(5-Chloro-2-methoxy-phenyl)-pyrrolo[2,1-f][1,2,4]triazin-2-yl]-[4-(4-methyl-piperazin-1-ylmethyl)-phenyl]-amine], the IC50 in test [1] and in test [2] was less than 100 nM in each case.
On to `CN1CCN(Cc2ccc(Nc3ncc4ccc(-c5ccc(S(C)(=O)=O)cc5)n4n3)cc2)CC1` [Example 355, [7-(4-Methanesulfonyl-phenyl)-pyrrolo[2,1-f][1,2,4]triazin-2-yl]-[4-(4-methyl-piperazin-1-ylmethyl)-phenyl]-amine], for which the values for the IC50 in test [1] and in test [2] were 1000 to 10000 nM and less than 100 nM, respectively.
As for `O=S(=O)(NC1CC1)c1cccc(-c2ccc3cnc(Nc4ccc(N5CCOCC5)cc4)nn23)c1` [Example 356, N-Cyclopropyl-3-[2-(4-morpholin-4-yl-phenylamino)-pyrrolo[2,1-f][1,2,4]triazin-7-yl]-benzenesulfonamide], the IC50 was 100 to 1000 nM in test [1] and less than 100 nM in test [2].
The matching figures for `CNS(=O)(=O)c1cccc(-c2ccc3cnc(Nc4ccc(N5CCOCC5)cc4)nn23)c1` [Example 357, N-Methyl-3-[2-(4-morpholin-4-yl-phenylamino)-pyrrolo[2,1-f][1,2,4]triazin-7-yl]-benzenesulfonamide]: 100 to 1000 nM and less than 100 nM.
With `O=S(=O)(c1cccc(-c2ccc3cnc(Nc4ccc(N5CCOCC5)cc4)nn23)c1)N1CCCC1` [Example 358, (4-Morpholin-4-yl-phenyl)-{7-[3-(pyrrolidine-1-sulfonyl)-phenyl]-pyrrolo[2,1-f][1,2,4]triazin-2-yl}-amine], the figures for the IC50 in test [1] and in test [2] were 100 to 1000 nM and less than 100 nM, respectively.
On the same counts, the results for `COc1ccccc1-c1ccc2cnc(Nc3ccc4c(c3)CC(=O)N4C)nn12` [Example 359, 5-[7-(2-Methoxy-phenyl)-pyrrolo[2,1-f][1,2,4]triazin-2-ylamino]-1-methyl-1,3-dihydro-indol-2-one] are 100 to 1000 nM and less than 100 nM.
As to `COc1ccc(Cl)cc1-c1ccc2cnc(Nc3ccc4c(c3)CC(=O)N4C)nn12` [Example 360, 5-[7-(5-Chloro-2-methoxy-phenyl)-pyrrolo[2,1-f][1,2,4]triazin-2-ylamino]-1-methyl-1,3-dihydro-indol-2-one], the IC50 in test [1] was 100 to 1000 nM; in test [2], less than 100 nM.

Source of the values: patent publication US8471005B2 (Cephalon, Inc., priority 2008, dated 2013).
